Assay results: US10422788B2, “Profiling peptides and methods for sensitivity profiling” (Tolero Pharmaceuticals, Inc., priority 2016, dated 2019)

Columns and labels:
[1] = tested on: MOLM-13 and OCI-AML3 cells; experiment: Whole cell assay, JC-1 mitochondrial potential, permeabilized and non-permeabilized cells; assay type: cell-based; settings: 100 μM, normalized mitochondrial potential
Procedure: (§1) Briefly, frozen MOLM-13 and OCI-AML3 cell stocks were rapidly thawed, and cell viability was determined by Trypan Blue exclusion. Cells were washed in PBS and resuspended in DTEB (or MEB) buffer (135 mM Trehalose [or 150 mM Mannitol], 10 mM HEPES, 50 mM KCl, 20 μMI EGTA, 20 μM EDTA, 0.1% BSA, and 5 mM succinate). The profiling peptides and NOXA ([…]; SEQ ID NO:16) were reconstituted in water to make working solutions allowing for final concentrations of: SEQ ID NO:1 (100 μM), SEQ ID NO:14 (100 μM), SEQ ID NO:15 (100 μM), and NOXA (100 μM). […] Profiling peptides, controls, or NOXA (for comparison purposes) were first added to a microplate. Cells (4×10^5) resuspended in DTEB or MEB buffers were then added to a staining solution ([…], 40 μM JC-1, 1 M 2-mercaptoethanol, DTEB or MEB buffer), before being added to the wells of the microplate in the above (for non-digitonin-treated samples, digitonin was not added to the staining solution above). The mixture was then incubated for up to 2 hours at 30° C., in order for cell permeabilization (if needed), delivery of peptides or compounds, and mitochondrial depolarization to occur. Fluorescence signal of each well was assessed using an Envision multilabel plate reader at Ex475/Em530 and Ex530/Em595. […]

[2] = tested on: MOLM-13 cells; experiment: Whole cell assay, JC-1 mitochondrial potential, cells lacking digitonin (FIG. 1B); assay type: cell-based; settings: 100 μM peptide, no digitonin
Procedure: as §1

[3] = tested on: MOLM-13; experiment: SEQ ID NO: 14 assay (Example 5, DiOC6 flow cytometry); assay type: cell-based; settings: non-permeabilized, DiOC6 MFI vs CCCP and water
[4] = tested on: OCI-AML3; experiment: as above; assay type: cell-based; settings: non-permeabilized, DiOC6 MFI vs CCCP and water
[5] = tested on: THP-1; experiment: as above; assay type: cell-based; settings: non-permeabilized, DiOC6 MFI vs CCCP and water
[6] = tested on: HL-60; experiment: as above; assay type: cell-based; settings: non-permeabilized, DiOC6 MFI vs CCCP and water
[7] = tested on: U-937; experiment: as above; assay type: cell-based; settings: non-permeabilized, DiOC6 MFI vs CCCP and water
[8] = tested on: KG-1; experiment: as above; assay type: cell-based; settings: non-permeabilized, DiOC6 MFI vs CCCP and water
[9] = tested on: MV4-11; experiment: as above; assay type: cell-based; settings: non-permeabilized, DiOC6 MFI vs CCCP and water
Procedure: (§2) Leukocytes are isolated from primary bone marrow aspirates using ficoll preparation. Leukocytes may be fresh or frozen. If frozen, the sample is thawed prior to testing. Incubate the sample in RPMI with DNase 1 in 37° C. incubator for 60 minutes. Cells are then pelleted, blocked in PBS with 1% BSA for 15 minutes on ice, followed by staining for 30 minutes on ice in the dark. After staining, cells are pelleted and resuspended in DTEB with Ryanodine (30 nM) and Oligomycin. After incubating in a 37° C. incubator for 30 minutes, the sample is separated into fluorescent-activated cell sorting (FACS) tubes and treated with either water (negative control), CCCP (positive control) or SEQ ID NO:14 (subject dependency) and incubated in a 37° incubator for 60 minutes. DiOC6, a cationic mitochondrial dye is then added and incubated for 60 minutes in a 37° C. incubator. The cells are then analyzed via flow cytometry. Blast cells are isolated by gating on the CD45 dim, CD13, CD33 and CD34 high population of each sample. (See FIG. 3). Where indicated, cells may be further gated using CD3 and CD20. Dependency values are calculated using the median fluorescent intensity (MFI) of DiOC6 in each sample according to the following equation: […]
NOXA assay results were compared to the results of the assay described in Example 5.

[10] = tested on: subject samples (AML blast cells); experiment: SEQ ID NO: 14 assay (Example 5) on subject samples; assay type: cell-based, human
Procedure: as §2

[11] = Sample # 17, subject treated with FLAM, complete response
[12] = Sample # 18, subject treated with FLAM, complete response
[13] = Sample # 19, subject treated with FLAM, complete response

**Q.** What does the source list for “YGRKKRRQRRRGGGRPEIWMTQGLRRLGDEINAYYAR (profiling peptide sequence) [SEQ ID NO:14]”?
**A.** activity in the absence of digitonin compared to Mcl-1 binding domain alone or SEQ ID NO:15 [1]: superior activity; activity compared to the positive control (FCCP) [2]: exceeded the activity of the positive control; SEQ ID NO: 14 Dependency % [3]: 20.78%; SEQ ID NO: 14 Dependency % [4]: 19.40%; SEQ ID NO: 14 Dependency % [5]: 11.70%; SEQ ID NO: 14 Dependency % [6]: 24.5%; SEQ ID NO: 14 Dependency % [7]: 10.1%; SEQ ID NO: 14 Dependency % [8]: 0.0%; SEQ ID NO: 14 Dependency % [9]: 5.0%; SEQ ID NO: 14 Dependency % ([10]; Sample # 1): 18.0%; SEQ ID NO: 14 Result (Pos/Neg) ([10]; Sample # 1): Neg (Concordance based on cutoff of ≥40% MCL-1 Dependency for both methods.); SEQ ID NO: 14 Dependency % ([10]; Sample # 2): 44.9%; SEQ ID NO: 14 Result (Pos/Neg) ([10]; Sample # 2): Pos (Concordance based on cutoff of ≥40% MCL-1 Dependency for both methods.); SEQ ID NO: 14 Dependency % ([10]; Sample # 3): 53.8%; SEQ ID NO: 14 Result (Pos/Neg) ([10]; Sample # 3): Pos (Concordance based on cutoff of ≥40% MCL-1 Dependency for both methods.); SEQ ID NO: 14 Dependency % ([10]; Sample # 4): 26.7%; SEQ ID NO: 14 Result (Pos/Neg) ([10]; Sample # 4): Neg (Concordance based on cutoff of ≥40% MCL-1 Dependency for both methods.); SEQ ID NO: 14 Dependency % ([10]; Sample # 5): 70.8%; SEQ ID NO: 14 Result (Pos/Neg) ([10]; Sample # 5): Pos (Concordance based on cutoff of ≥40% MCL-1 Dependency for both methods.); SEQ ID NO: 14 Dependency % ([10]; Sample # 6): 44.3%; SEQ ID NO: 14 Result (Pos/Neg) ([10]; Sample # 6): Pos (Concordance based on cutoff of ≥40% MCL-1 Dependency for both methods.); SEQ ID NO: 14 Dependency % ([10]; Sample # 7): 48.1%; SEQ ID NO: 14 Result (Pos/Neg) ([10]; Sample # 7): Pos (Concordance based on cutoff of ≥40% MCL-1 Dependency for both methods.); SEQ ID NO: 14 Dependency % ([10]; Sample # 8): 17.0%; SEQ ID NO: 14 Result (Pos/Neg) ([10]; Sample # 8): Neg (Concordance based on cutoff of ≥40% MCL-1 Dependency for both methods.); SEQ ID NO: 14 Dependency % ([10]; Sample # 9): 71.8%; SEQ ID NO: 14 Result (Pos/Neg) ([10]; Sample # 9): Pos (Concordance based on cutoff of ≥40% MCL-1 Dependency for both methods.); SEQ ID NO: 14 Dependency % ([10]; Sample # 10): 0.0%; SEQ ID NO: 14 Result (Pos/Neg) ([10]; Sample # 10): Neg (Concordance based on cutoff of ≥40% MCL-1 Dependency for both methods.); SEQ ID NO: 14 Dependency % ([10]; Sample # 11): 40.6%; SEQ ID NO: 14 Result (Pos/Neg) ([10]; Sample # 11): Pos (Concordance based on cutoff of ≥40% MCL-1 Dependency for both methods.); SEQ ID NO: 14 Dependency % ([10]; Sample # 12): 38.3%; SEQ ID NO: 14 Result (Pos/Neg) ([10]; Sample # 12): Neg (Concordance based on cutoff of ≥40% MCL-1 Dependency for both methods.); SEQ ID NO: 14 Dependency % ([10]; Sample # 13): 35.2%; SEQ ID NO: 14 Result (Pos/Neg) ([10]; Sample # 13): Neg (Concordance based on cutoff of ≥40% MCL-1 Dependency for both methods.); SEQ ID NO: 14 Dependency % ([10]; Sample # 14): 2.6%; SEQ ID NO: 14 Result (Pos/Neg) ([10]; Sample # 14): Neg (Concordance based on cutoff of ≥40% MCL-1 Dependency for both methods.); SEQ ID NO: 14 Dependency % ([10]; Sample # 15): 0.0%; SEQ ID NO: 14 Result (Pos/Neg) ([10]; Sample # 15): Neg (Concordance based on cutoff of ≥40% MCL-1 Dependency for both methods.); SEQ ID NO: 14 Dependency % ([10]; Sample # 16): 0.1%; SEQ ID NO: 14 Result (Pos/Neg) ([10]; Sample # 16): Neg (Concordance based on cutoff of ≥40% MCL-1 Dependency for both methods.); SEQ ID NO: 14 Dependency % [10, 11]: 62.4%; SEQ ID NO: 14 Result (Pos/Neg) [10, 11]: Pos (Concordance based on cutoff of ≥40% MCL-1 Dependency for both methods.); SEQ ID NO: 14 Dependency % [10, 12]: 55.0%; SEQ ID NO: 14 Result (Pos/Neg) [10, 12]: Pos (Concordance based on cutoff of ≥40% MCL-1 Dependency for both methods.); SEQ ID NO: 14 Dependency % [10, 13]: 27.8%; SEQ ID NO: 14 Result (Pos/Neg) [10, 13]: Neg (Concordance based on cutoff of ≥40% MCL-1 Dependency for both methods.)
